# Assay results published in patent US20260258446A1, “SMALL MOLECULE ENHANCERS FOR ADENO-[…] PRODUCTION” (priority 2023, published 2026).
# Counter-ions that a name gives are not always drawn.
# Columns and labels:
# [1] = tested on: AAV8 production in Viral Production 2.0 cells (293-VP 2.0); assay: AAV8 production by transient transfection, genome titer by dPCR; format: cell-based, human
# Procedure: Candidate small molecules were selected via literature-based searches and encompassed general classes of epigenetic modifiers, PI3K inhibitors, cell cycle modulators, innate immune activators/inhibitors, proteosome inhibitors, kinase inhibitors, free fatty acids, endoplasmic reticulum stress inducers/inhibitors, and autophagy activators/inhibitors. Various candidate small molecule were analyzed in AAV2 or AAV8 production. The initial test concentrations of each small molecule were determined by previous uses of the molecules found in the literature for a variety of applications. For each candidate small molecule, cells were triple transfected with three plasmids encoding the rep/cap genes, gene of interest flanked by […] terminal repeats (ITR) and adenovirus helper molecules. The rep/cap plasmid encoded either AAV2 or AAV8 capsids. The plasmid DNA (pDNA) was combined with the TransIT-VirusGEN® transfection reagent and added to 293-derived suspension cells. The cells were then immediately treated with the small molecule. AAV production occurred over the course of 72 hours, after which virus was harvested. Genomes were assessed by digital PCR (dPCR), and capsids by a specific ELISA or homogeneous based luciferase assay utilizing capsid specific antibodies. The percentage of full capsids was calculated by dividing the total number of genomes by the total number of capsids. A small molecule was considered a successful enhancer of AAV production if it increased AAV as measured by viral genomes 1.5-fold over an untreated control and was not detrimental to the percentage of full capsids, or if it increased the percentage of full capsids 1.5-fold over an untreated control and was not detrimental to the total number of produced AAV as measured by viral genomes. The experimental design may identify small molecules that enhance AAV production.
# Viral Production Cells 2.0 (293-VP 2.0; Thermo Fisher Cat. No. A49784) were maintained in Viral Production Media (VPM; Thermo Fisher Cat. No. A4817901) supplemented with 4 mM GlutaMAX™ (Thermo Fisher Cat. No. 35050061). Expi293F™ Cells (Thermo Fisher Cat. No. A14527) were maintained in Expi293™ Expression Medium (Thermo Fisher Cat. No. A1435101). Both cell lines were maintained at the supplier recommended 8% CO2 and 37° C. on a 2.5 cm orbital shaker at 125 rpm.
# The day before transfection, cells were passaged to ensure the cells were actively dividing and would reach a density of 4.0-5.0×10^6 cells/mL the day of transfection. The day of transfection, cells were seeded in 6-well non-tissue culture treated plates (Corning, Cat. No. 351146) at a density of 3.0×10^6 cells/mL. A 1 mg/mL DNA solution composed of a 1:1:1 plasmid concentration ratio of a transfer vector (Agilent, Cat. No. 240074-51), an AAV2 RepCap Vector (Aldevron, Cat. No. pALD-AAV2) or an AAV5 RepCap Vector (Aldevron, Cat. No. pALD-AAV5) or an AAV8 RepCap vector (Genemedi, Cat. No. P-RC09) or an AAV9 RepCap vector (Genemedi, Cat. No. p-RC13), and a helper vector (Agilent Cat. No. 240071-54) was formed in water. For each milliliter of culture, 3 μL of TransIT-VirusGEN® (Mirus Bio LLC, Cat. No. MIR 6700) and 2 μg of DNA were added to a final volume of 100 μL Phosphate-buffered saline (PBS; Corning, Cat. No. 21-040-CV) for a final transfection reagent to DNA ratio of 1.5:1. This mixture was incubated at room temperature for 30 minutes to allow transfection complexes to form, after which 100 μL was added per milliliter of culture for a final complexation volume of 10%. In some instances, cells were transfected with 1 μL FectoVIR®-AAV (Polyplus, Cat. No. 101000044) per million cells and 1 μg DNA per million cells for a final transfection reagent to DNA ratio of 1:1, and a final complexation volume of 5%. In some instances, cells were transfected with 1 μL PEIPro® (Polyplus, Cat. No. 101000017) per million cells and 1 μg DNA per million cells for a final transfection reagent to DNA ratio of 1:1, and a final complexation volume of 10%. […]
# [2] = tested on: AAV2 or AAV8 production in 293-derived suspension cells; assay: cells; format: cell-based, human
# Procedure: Various candidate small molecule were analyzed in AAV2 or AAV8 production. […] For each candidate small molecule, cells were triple transfected with three plasmids encoding the rep/cap genes, gene of interest flanked by internal terminal repeats (ITR) and adenovirus helper molecules. The rep/cap plasmid encoded either AAV2 or AAV8 capsids. The plasmid DNA (pDNA) was combined with the TransIT-VirusGEN® transfection reagent and added to 293-derived suspension cells. The cells were then immediately treated with the small molecule. AAV production occurred over the course of 72 hours, after which virus was harvested. Genomes were assessed by digital PCR (dPCR), and capsids by a specific ELISA or homogeneous based luciferase assay utilizing capsid specific antibodies. The percentage of full capsids was calculated by dividing the total number of genomes by the total number of capsids. A small molecule was considered a successful enhancer of AAV production if it increased AAV as measured by viral genomes 1.5-fold over an untreated control and was not detrimental to the percentage of full capsids, or if it increased the percentage of full capsids 1.5-fold over an untreated control and was not detrimental to the total number of produced AAV as measured by viral genomes. […]
# [3] = from about 0.5 μM to about 40 μM
smiles,measurement,setting,value
"CC[C@@H]1C(=O)N(C)c2cnc(Nc3ccc(C(=O)NC4CCN(C)CC4)cc3OC)nc2N1C1CCCC1 [Compound A, (R)-4-((8-cyclopentyl-7-ethyl-5-methyl-6-oxo-5,6,7,8-tetrahydropteridin-2-yl)amino)-3-methoxy-N-(1-methylpiperidin-4-yl)benzamide]",Successful enhancer of AAV8 production (genomes or % full capsids 1.5-fold over untreated control),[1]; from about 0.025 μM to about 1 μM,Successful enhancers
"CN[C@H]1CCc2cc(OC)c(OC)c(OC)c2-c2ccc(OC)c(=O)cc21 [Compound B, (S)-1,2,3,10-tetramethoxy-7-(methylamino)-6,7-dihydrobenzo[a]heptalen-9 (5H)-one]",Successful enhancer of AAV8 production (genomes or % full capsids 1.5-fold over untreated control),[1]; from about 0.0673 μM to about 0.2019 μM,Successful enhancers
"CC(=O)O[C@@]12CO[C@@H]1C[C@H](O)[C@@]1(C)C(=O)[C@H](O)C3=C(C)[C@@H](OC(=O)[C@H](O)[C@@H](NC(=O)OC(C)(C)C)c4ccccc4)C[C@@](O)([C@@H](OC(=O)c4ccccc4)[C@H]21)C3(C)C [Compound C, [(1S,2S,3R,4S,7R,9S, 10S, 12R, 15S)-4-acetyloxy-1,9,12-trihydroxy-15-[(2R,3S)-2-hydroxy-3-[(2-methylpropan-2-yl)oxycarbonylamino]-3-phenylpropanoyl]oxy-10,14,17,17-tetramethyl-11-oxo-6-oxatetracyclo[11.3.1.0^3,10.0^4,7]heptadec-13-en-2-yl]benzoate]",Successful enhancer of AAV8 production (genomes or % full capsids 1.5-fold over untreated control),[1]; from 1 μM to about 20 μM,Successful enhancers
same,"Increase in AAV8 titers (""Top Hits"")",[1]; from about 1 μM to about 20 μM,highest increase in AAV8 titers
"CCn1cc(-c2ccnc3[nH]c(-c4cccc(CN(C)C)c4)cc23)c(-c2ccc(NC(=O)N(C)C)cc2)n1 [Compound D, 3-(4-(4-(2-(3-((dimethylamino)methyl)phenyl)-1H-pyrrolo[2,3-b]pyridin-4-yl)-1-ethyl-1H-pyrazol-3-yl)phenyl)-1,1-dimethylurea]",Successful enhancer of AAV8 production (genomes or % full capsids 1.5-fold over untreated control),[1]; about 0.05 μM,Successful enhancers
same,fold induction at 0.05 µM,"[2]; Homo sapiens, 72 h, read-out: Fold increase in genomes over no enhancer control",1.57 to 1.91
"CC(=O)O[C@H]1C(=O)[C@@]2(C)[C@H]([C@H](OC(=O)c3ccccc3)[C@]3(O)C[C@H](OC(=O)[C@H](O)[C@@H](NC(=O)c4ccccc4)c4ccccc4)C(C)=C1C3(C)C)[C@]1(OC(C)=O)CO[C@@H]1C[C@@H]2O [Compound F, [(1S,2S,3R,4S,7R,9S,10S,12R, 15S)-4,12-diacetyloxy-15-[(2R,3S)-3-benzamido-2-hydroxy-3-phenylpropanoyl]oxy-1,9-dihydroxy-10,14,17,17-tetramethyl-11-oxo-6-oxatetracyclo[11.3.1.0^3,10.0^4,7]heptadec-13-en-2-yl]benzoate]","Increase in AAV8 titers (""Top Hits"")",[1]; [3],highest increase in AAV8 titers
same,Successful enhancer of AAV8 production (genomes or % full capsids 1.5-fold over untreated control),[1]; [3],Successful enhancers
"CC(=O)NCC(=O)N1[C@@H]2CC[C@H]1c1ccc(Nc3ncc(C(F)(F)F)c(NC4CCC4)n3)cc12 [Compound G, N-[2-[(1R,8S)-4-[[4-(cyclobutylamino)-5-(trifluoromethyl)pyrimidin-2-yl]amino]-11-azatricyclo[6.2.1.0^2,7]undeca-2 (7),3,5-trien-11-yl]-2-oxoethyl]acetamide]",Successful enhancer of AAV8 production (genomes or % full capsids 1.5-fold over untreated control),[1]; from about 0.02 μM to about 0.5 μM,Successful enhancers
"O=C(CCCCCCC(=O)Nc1ccccc1)NO [SAHA, suberoylanilide hydroxamic acid]",Successful enhancer of AAV8 production (genomes or % full capsids 1.5-fold over untreated control),[1]; from about 0.5 μM to about 1 μM,Successful enhancers
CCC(=O)[O-].[Na+] [Sodium Propionate],Fold increase in genomes over no enhancer control,[2]; 5000 μM-10000 μM,1.20-1.48 fold
CCCC(CCC)C(=O)[O-].[Na+] [Valproic Acid Sodium Salt],Successful enhancer of AAV8 production (genomes or % full capsids 1.5-fold over untreated control),[1]; from about 400 μM to about 2500 μM,Successful enhancers
CC[C@]1(O)C[C@@H]2CN(CCc3c([nH]c4ccccc34)[C@@](C(=O)OC)(c3cc4c(cc3OC)N(C)[C@H]3[C@@](O)(C(=O)OC)[C@H](OC(C)=O)[C@]5(CC)C=CCN6CC[C@]43[C@@H]65)C2)C1 [Vinblastine Sulfate],Successful enhancer of AAV8 production (genomes or % full capsids 1.5-fold over untreated control),[1]; from about 2.5 μM to about 15 μM,Successful enhancers
